Test results published in patent publication US20250296934A1, “AZEPINOINDOLES AND METHODS OF PREPARATION THEREOF” (priority 2022, published 2025).
Where two headings read alike, the source gives them in different places.

Columns and labels:
5-HT1E = 5-HT1E (Homo sapiens, UniProt P28566); assay: 5-HT receptor activity (Table 3), 5-HT1E; assay type: cell-based
5-HT2A = 5-HT2A (Homo sapiens, UniProt P28223); assay: 5-HT receptor activity (Table 3), 5-HT2A; assay type: cell-based
[1] = In vitro hepatocyte clearance, dog; assay type: in vitro ADME
Method: (§1) Additional experimentation was performed on compounds 1, W5, and A93. Table 6a, 6b and 6c summarize, among other things, the anticipated hepatic clearance of compounds 1, W5 and A93 respectively, in various species, as specified in Table 6a, 6b and 6c and as determined by calculating the in vitro hepatocyte clearance over time and scaling such rate with such species' hepatocyte count and the anticipated liver blood flow rate in such species.

hepatocyte = assay: In vitro hepatocyte clearance, dog; assay type: in vitro ADME; conditions: Dog
Method: as §1

Sequence of 5-HT2A (P28223 whole entry): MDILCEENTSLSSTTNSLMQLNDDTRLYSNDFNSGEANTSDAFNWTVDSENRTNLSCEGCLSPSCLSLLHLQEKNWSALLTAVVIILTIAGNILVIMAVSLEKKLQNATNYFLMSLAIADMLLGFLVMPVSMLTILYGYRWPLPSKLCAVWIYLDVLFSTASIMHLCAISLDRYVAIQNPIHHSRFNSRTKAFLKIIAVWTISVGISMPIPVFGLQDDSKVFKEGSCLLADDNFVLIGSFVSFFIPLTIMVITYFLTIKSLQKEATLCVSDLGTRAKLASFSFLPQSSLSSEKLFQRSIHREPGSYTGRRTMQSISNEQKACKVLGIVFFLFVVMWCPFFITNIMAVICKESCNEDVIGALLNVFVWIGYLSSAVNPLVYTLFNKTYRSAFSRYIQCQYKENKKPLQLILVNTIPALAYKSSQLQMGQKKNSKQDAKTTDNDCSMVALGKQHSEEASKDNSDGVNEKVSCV
Sequence of 5-HT1E (P28566 whole entry, species assumed): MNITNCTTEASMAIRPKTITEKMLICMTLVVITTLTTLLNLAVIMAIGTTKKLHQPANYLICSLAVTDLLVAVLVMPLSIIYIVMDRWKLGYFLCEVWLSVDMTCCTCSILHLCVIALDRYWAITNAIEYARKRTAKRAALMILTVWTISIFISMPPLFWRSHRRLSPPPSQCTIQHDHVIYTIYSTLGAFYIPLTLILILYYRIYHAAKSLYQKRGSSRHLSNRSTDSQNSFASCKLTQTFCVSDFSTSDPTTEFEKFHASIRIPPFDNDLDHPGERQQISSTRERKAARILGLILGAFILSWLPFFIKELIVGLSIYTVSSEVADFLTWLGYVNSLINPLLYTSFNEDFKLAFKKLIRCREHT

Question: Which results are given for `Cc1ccc(O)c2c3c([nH]c12)CCNCC3` [Cpd #1 (Pharm-136), 7-Methyl-1,2,3,4,5,6-hexahydroazepino[4,5-b]indol-10-ol]?
Answer: EC50 (5-HT1E): 966 nM; Eff (5-HT1E): 94%; EC50 (5-HT2A): 0.5 nM; Eff (5-HT2A; 5-HT2A, Table 3): 101%; hepatocyte CLint ([1]; Dog hepatocytes): < 2.71 µL/min/1e6 cells; half-life ([1]; Dog hepatocytes, read-out: In vitro T1/2): > 8.53 h; CLint scaled ([1]; dog, hepatocytes, read-out: Scale-up Clint): < 18.6 mL/min/kg; Hepatic Extraction Ratio (E) (hepatocyte): <0.38; Predicted hepatic CL (hepatocyte): <11.62 mL/min/kg; Count (n. of wells) (TA1535; TA1535 + S9, 1.0E−04M): 0 n. of wells; Significance (TA1535; TA1535 + S9, 1.0E−04M): Negative; Count (n. of wells) (TA1535; TA1535 + S9, 1.0E−05M): 0 n. of wells; Significance (TA1535; TA1535 + S9, 1.0E−05M): Negative; Count (n. of wells) (TA1535; TA1535 + S9, 5.0E−05M): 0 n. of wells; Significance (TA1535; TA1535 + S9, 5.0E−05M): Negative; Count (n. of wells) (TA1535; TA1535 + S9, 5.0E−06M): 0 n. of wells; Significance (TA1535; TA1535 + S9, 5.0E−06M): Negative; Count (n. of wells) (TA1535; TA1535 − S9, 1.0E−04M): 0 n. of wells; Significance (TA1535; TA1535 − S9, 1.0E−04M): Negative; Count (n. of wells) (TA1535; TA1535 − S9, 1.0E−05M): 0 n. of wells; Significance (TA1535; TA1535 − S9, 1.0E−05M): Negative; Count (n. of wells) (TA1535; TA1535 − S9, 5.0E−05M): 0 n. of wells; Significance (TA1535; TA1535 − S9, 5.0E−05M): Negative; Count (n. of wells) (TA1535; TA1535 − S9, 5.0E−06M): 0 n. of wells; Significance (TA1535; TA1535 − S9, 5.0E−06M): Negative
